# Columns and labels:
# [1] = biological target: T1, TRPM2 (Homo sapiens, UniProt O94759); test: whole-cell patch clamp; type: cell-based
# [2] = biological target: T1, TRPM2; test: whole-cell patch clamp, HEK293 expressing hTRPM2; type: cell-based
# T1 sequence (O94759 whole entry): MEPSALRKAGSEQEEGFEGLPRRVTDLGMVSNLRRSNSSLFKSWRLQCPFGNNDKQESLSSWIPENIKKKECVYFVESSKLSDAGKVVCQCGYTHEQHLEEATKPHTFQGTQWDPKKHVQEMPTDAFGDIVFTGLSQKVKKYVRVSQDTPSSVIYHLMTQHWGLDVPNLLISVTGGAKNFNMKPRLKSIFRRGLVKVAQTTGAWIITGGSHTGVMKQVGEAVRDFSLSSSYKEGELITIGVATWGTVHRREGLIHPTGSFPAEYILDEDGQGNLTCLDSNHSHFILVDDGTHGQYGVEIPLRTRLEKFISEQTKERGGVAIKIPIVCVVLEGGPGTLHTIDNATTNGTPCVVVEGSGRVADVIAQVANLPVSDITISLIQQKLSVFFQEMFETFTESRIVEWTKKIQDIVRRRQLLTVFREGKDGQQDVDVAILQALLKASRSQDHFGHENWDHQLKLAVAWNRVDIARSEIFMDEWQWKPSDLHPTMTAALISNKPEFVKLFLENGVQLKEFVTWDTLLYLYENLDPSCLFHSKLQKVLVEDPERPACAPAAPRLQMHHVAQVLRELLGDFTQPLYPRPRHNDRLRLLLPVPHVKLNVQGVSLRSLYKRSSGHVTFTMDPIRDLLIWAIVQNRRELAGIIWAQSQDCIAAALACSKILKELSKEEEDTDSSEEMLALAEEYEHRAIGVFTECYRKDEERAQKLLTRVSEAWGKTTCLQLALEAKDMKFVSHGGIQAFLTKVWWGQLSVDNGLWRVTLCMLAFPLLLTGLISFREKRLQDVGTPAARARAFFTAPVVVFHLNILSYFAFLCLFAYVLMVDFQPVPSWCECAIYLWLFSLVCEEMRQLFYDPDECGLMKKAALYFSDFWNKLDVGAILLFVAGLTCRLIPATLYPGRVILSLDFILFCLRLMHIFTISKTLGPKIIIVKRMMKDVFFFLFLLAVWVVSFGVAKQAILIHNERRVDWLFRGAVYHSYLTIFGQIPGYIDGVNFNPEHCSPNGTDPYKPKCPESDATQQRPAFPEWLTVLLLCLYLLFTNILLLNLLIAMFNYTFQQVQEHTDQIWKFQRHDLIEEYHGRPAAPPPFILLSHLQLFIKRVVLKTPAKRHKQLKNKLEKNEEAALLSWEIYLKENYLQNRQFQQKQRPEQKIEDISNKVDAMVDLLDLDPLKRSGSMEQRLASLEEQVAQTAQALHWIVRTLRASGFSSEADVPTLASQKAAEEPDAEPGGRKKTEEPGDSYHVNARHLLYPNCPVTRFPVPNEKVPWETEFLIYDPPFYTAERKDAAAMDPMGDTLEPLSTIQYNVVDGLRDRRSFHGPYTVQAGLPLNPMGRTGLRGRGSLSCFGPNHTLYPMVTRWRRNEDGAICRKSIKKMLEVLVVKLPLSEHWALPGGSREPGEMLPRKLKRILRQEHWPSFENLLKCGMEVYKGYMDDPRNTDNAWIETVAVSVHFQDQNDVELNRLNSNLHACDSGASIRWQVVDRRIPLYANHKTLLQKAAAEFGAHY
EC50 [1],EC50 [2],Compound
28 µM,–,"Nc1ncnc2c1ncn2[C@@H]1O[C@H](COP(=O)(O)OP(=O)(O)OC[C@H]2OC(O)[C@H](O)[C@@H]2O)[C@@H](O)[C@H]1O (stereo partly drawn) [compound 1, ADPR]"
–,110 µM,"Nc1ncnc2c1ncn2[C@@H]1O[C@H](COP(=O)(O)OP(=O)(O)OC[C@H]2OC(O)[C@H](O)[C@@H]2O)[C@@H](O)[C@H]1OP(=O)(O)O (stereo partly drawn) [compound 15, 2′-phospho-ADPR]"
–,46 µM,"Nc1ncnc2c1ncn2[C@@H]1O[C@H](COP(=O)(O)OP(=O)(O)OC[C@H]2OC(O)[C@H](O)[C@@H]2O)C[C@H]1O (stereo partly drawn) [compound 17, 3′-deoxy-ADPR]"
